Test results taken from patent US20220000919A1, “PLACENTAL DERIVED NATURAL KILLER CELLS FOR TREATMENT OF CORONAVIRUS INFECTIONS” (Celularity Inc., priority 2020, published 2022).

Key:
[1] = tested on: CD34+ cells; test: NK culture of CD34+ cells with CRL compounds: cell expansion and NK differentiation; format: cell-based, human; settings: for supported NK (PNK-007) expansion and differentiation: compound at 10 μM during the first 14 days of culture; for CD56+/CD11a+ subpopulation compared to SRI / expansion, differentiation and cytotoxicity profiles compared to SRI: PNK-007 culture, 10 μM; for cell expansion compared to SRI positive control at Day 35: compound and SRI at 10 μM; for CD34 cell expansion at Day 14 of the culture: compound at 10 μM
Procedure: Stage 1 medium: 90% Stem Cell Growth Medium (SCGM) (CellGro®), 10% Human Serum-AB, supplemented with 25 ng/mL or 250 ng/mL recombinant human thrombopoietin (TPO), 25 ng/mL recombinant human Flt3L, 27 ng/mL recombinant human stem cell factor (SCF), 25 ng/mL recombinant human IL-7, 0.05 ng/mL or 0.025 ng/mL recombinant human IL-6, 0.25 ng/mL or 0.125 ng/mL recombinant human granulocyte colony-stimulating factor (G-CSF), 0.01 ng/mL or 0.025 ng/mL recombinant human granulocyte-macrophage colony-stimulating factor (GM-CSF), 0.10% gentamicin, and 1 to 10 μm StemRegenin-1 (SR-1) or other stem cell mobilizing agent.
Stage 2 medium: 90% SCGM, 10% Human Serum-AB, supplemented with 25 ng/mL recombinant human Flt3L, 27 ng/mL recombinant human SCF, 25 ng/mL recombinant human IL-7, 20 ng/mL recombinant human IL-15, 0.05 ng/mL or 0.025 ng/mL recombinant human IL-6, 0.25 ng/mL or 0.125 ng/mL recombinant human granulocyte colony-stimulating factor (G-CSF), 0.01 ng/mL or 0.025 ng/mL recombinant human granulocyte-macrophage colony-stimulating factor (GM-CSF), 0.10% gentamicin, and 1 to 10 μm SRI or other stem cell mobilizing agent.
Stage 3 medium: 90% STEMMACS™, 10% Human Serum-AB, 0.025 mM 2-mercaptoethanol (55 mM), supplemented with 22 ng/mL recombinant human SCF, 1000 U/mL recombinant human IL-2, 20 ng/mL recombinant human IL-7, 20 ng/mL recombinant human IL-15, 0.05 ng/mL or 0.025 ng/mL recombinant human IL-6, 0.25 ng/mL or 0.125 ng/mL recombinant human granulocyte colony-stimulating factor (G-CSF), 0.01 ng/mL or 0.025 ng/mL recombinant human granulocyte-macrophage colony-stimulating factor (GM-CSF), and 0.10% gentamicin.
Cells are seeded at Day 0 at 3×10^4 cells/mL in Stage 1 media, and cells are tested for purity by a CD34+ and CD45+ count and viability by 7AAD staining. At Day 5 cells are counted and seeded to a concentration of 1×10^5 cells/mL with Stage 1 medium. At Day 7 cells are counted and seeded to a concentration of 1×10^5 cells/mL with Stage 1 medium.
At Day 10, cells are counted and seeded to a concentration of 1×10^5 cells/mL in Stage 2 medium. At Day 12, cells are counted and seeded to a concentration of 3×10^5 cells/mL in Stage 2 medium. At Day 14, cells are counted and seeded in Stage 3 medium. Cells are maintained in Stage 3 media until day 35.
UCB CD34+ cells were cultivated in presence of cytokines including thrombopoietin, SCF, Flt3 ligand, IL-7, IL-15 and IL-2 for 35 days to produce three-stage NK cells, as described in Example 1. Multi-color flow cytometry was used to determine the phenotypic characteristics of three-stage NK cells.
(§1) For biological testing, the compounds were provided to culture to evaluate their effects on NK cell expansion and differentiation. Specifically, donors of CD34+ cells (StemCell Technology) were thawed and expanded in vitro following NK culture protocol. During the first 14 days of the culture, each CRL compounds was dissolved in DMSO and added to the culture at 10 μM concentration. SRI (at 10 μM) served as a positive control compound, while DMSO alone without any compound served as a negative control. At the end of the culture on Day 35, cell expansion, natural killer (NK) cell differentiation and cytotoxicity of the cells against K562 tumor cell line were characterized. Due to the large number of the compounds, the testing was performed in two experiments, CRL1-11 and CRL 12-22. The same donors were used for each experiment. Positive and negative controls were also included in both experiments.

[2] = tested on: K562 tumor cells; test: Cytotoxicity assay of compound cultured cells against K562 tumor cells; format: cell-based; settings: K562, 10:1 effector to target ratio
Procedure: as §1
Cytotoxicity assay was run using compound cultured cells against K562 tumor cells at 10:1 effector to target ratio (FIG. 5) to evaluate cell functions.

Compound | supported NK (PNK-007) expansion and differentiation [1] | CD56+/CD11a+ subpopulation compared to SRI [1] | cell expansion compared to SRI positive control at Day 35 [1] | killing activities of cultured cells compared to those cultured with SRI [2] | expansion, differentiation and cytotoxicity profiles compared to SRI [1] | CD34 cell expansion at Day 14 of the culture [1]
CCC(C)Nc1cc(-c2cncc(C#N)c2)nc(NCCc2c[nH]c3ccccc23)n1 (centres unmarked) [CRL7, 5-(2-((2-(1H-indol-3-yl)ethyl)amino)-6-(sec-butylamino)pyrimidin-4-yl)nicotinonitrile] | all the compounds except CRL7 and CRL13 supported PNK-007 expansion and differentiation | – | – | – | – | –
CCC(C)Nc1nc(NCCc2c[nH]c3ccccc23)c2ccccc2n1 (centres unmarked) [CRL13, N^4-(2-(1H-indol-3-yl)ethyl)-N^2-(sec-butyl)quinazoline-1,4-diamine] | all the compounds except CRL7 and CRL13 supported PNK-007 expansion and differentiation | – | – | – | – | –
CC(C)c1csc2c(NCCc3c[nH]c4ccccc34)nc(-c3cncc(C#N)c3)nc12 [CRL17, 5-(4-((2-(1H-indol-3-yl)ethyl)amino)-7-isopropylthieno[3,2-d]pyrimidin-2-yl)nicotinonitrile] | – | increased CD56+/CD11a+ subpopulation | slightly less expansion compared to SRI | increased killing activities of the cells | – | –
CC(C)c1csc2c(NCCc3c[nH]c4ccccc34)nc(-c3cncc(F)c3)nc12 [CRL18, N-(2-(1H-indol-3-yl)ethyl)-2-(5-fluoropyridin-3-yl)-7-isopropylthieno[3,2-d]pyrimidin-4-amine] | – | increased CD56+/CD11a+ subpopulation | slightly less expansion compared to SRI | increased killing activities of the cells | – | –
Fc1cncc(-c2nc(NCCc3c[nH]c4ccccc34)c3occc3n2)c1 [CRL19, N-(2-(1H-indol-3-yl)ethyl)-2-(5-fluoropyridin-3-yl)furo[3,2-d]pyrimidin-4-amine] | – | – | – | – | very similar expansion, differentiation and cytotoxicity profiles as SRI | highest CD34 cell expansion
Cc1cncc(-c2nc(NCCc3c[nH]c4ccccc34)c3occc3n2)c1 [CRL20, N-(2-(1H-indol-3-yl)ethyl)-2-(5-methylpyridin-3-yl)furo[3,2d]pyrimidin-4-amine] | – | – | – | – | very similar expansion, differentiation and cytotoxicity profiles as SRI | highest CD34 cell expansion
Cc1cncc(-c2nc(NCCc3c[nH]c4ccccc34)c3scc(C(C)C)c3n2)c1 [CRL21, N-(2-(1H-indol-3-yl)ethyl)-7-isopropyl-2-(5-methylpyridin-3-yl)thieno[3,2-d]pyrimidin-4-amine] | – | increased CD56+/CD11a+ subpopulation | slightly less expansion compared to SRI | increased killing activities of the cells | – | –
N#Cc1cncc(-c2nc(NCCc3c[nH]c4ccccc34)c3occc3n2)c1 [CRL22, 5-(4-((2-(1H-indol-3-yl)ethyl)amino)furo[3,2-d]pyrimidin-2-yl)nicotinonitrile] | – | – | – | – | very similar expansion, differentiation and cytotoxicity profiles as SRI | highest CD34 cell expansion
